Patent US5786364A, “Bicyclic isothiourea derivatives useful in therapy” (priority 1995, dated 1998)
Like-named read-outs stand apart in the source and are kept apart here. Each block holds one molecule with its values, some of them ahead of it.

Legend:
Assay type in all cases: biochemical
[1] = target: T1, endothelial nitric oxide synthase (Homo sapiens, UniProt P29474); test: Screen C: screen for endothelial nitric oxide synthase inhibiting activity (HUVEC enzyme)
T1 construct: Enzyme may be isolated from human umbilical vein endothelial cells (HUVECs); host or cells: human umbilical vein endothelial cells (HUVECs)
T1 sequence (P29474 2-1203): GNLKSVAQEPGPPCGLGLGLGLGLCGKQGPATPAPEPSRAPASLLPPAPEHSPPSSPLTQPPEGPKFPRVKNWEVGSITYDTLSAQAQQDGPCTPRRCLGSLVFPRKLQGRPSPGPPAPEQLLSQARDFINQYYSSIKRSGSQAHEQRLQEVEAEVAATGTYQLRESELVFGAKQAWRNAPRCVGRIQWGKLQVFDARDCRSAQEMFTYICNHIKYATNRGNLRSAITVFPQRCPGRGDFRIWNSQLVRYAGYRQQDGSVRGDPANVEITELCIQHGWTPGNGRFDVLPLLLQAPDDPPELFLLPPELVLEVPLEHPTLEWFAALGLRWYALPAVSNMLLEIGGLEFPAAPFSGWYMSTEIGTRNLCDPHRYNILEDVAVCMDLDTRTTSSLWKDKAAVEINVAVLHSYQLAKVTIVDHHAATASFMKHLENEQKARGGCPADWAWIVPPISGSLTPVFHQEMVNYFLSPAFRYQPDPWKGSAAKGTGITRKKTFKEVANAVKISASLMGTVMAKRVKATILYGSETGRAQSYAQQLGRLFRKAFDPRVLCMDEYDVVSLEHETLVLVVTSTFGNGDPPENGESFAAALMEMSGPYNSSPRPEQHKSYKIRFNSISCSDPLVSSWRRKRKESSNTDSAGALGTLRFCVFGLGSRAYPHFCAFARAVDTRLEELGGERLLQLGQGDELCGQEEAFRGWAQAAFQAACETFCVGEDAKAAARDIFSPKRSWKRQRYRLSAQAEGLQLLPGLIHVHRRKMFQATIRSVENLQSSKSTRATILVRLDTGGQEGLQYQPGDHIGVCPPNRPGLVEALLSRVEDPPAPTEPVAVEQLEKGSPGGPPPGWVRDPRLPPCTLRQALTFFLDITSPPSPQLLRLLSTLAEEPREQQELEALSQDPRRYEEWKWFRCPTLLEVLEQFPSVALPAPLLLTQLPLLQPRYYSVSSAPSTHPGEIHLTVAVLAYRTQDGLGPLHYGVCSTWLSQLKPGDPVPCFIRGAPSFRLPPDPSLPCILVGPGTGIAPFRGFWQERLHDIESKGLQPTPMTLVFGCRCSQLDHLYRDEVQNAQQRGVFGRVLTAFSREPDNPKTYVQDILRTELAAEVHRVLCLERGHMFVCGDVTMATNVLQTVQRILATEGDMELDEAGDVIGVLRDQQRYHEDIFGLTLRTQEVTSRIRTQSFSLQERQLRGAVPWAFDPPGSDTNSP

[2] = target: T2, inducible nitric oxide synthase (Homo sapiens, UniProt P35228); test: Screen B: screen for inducible nitric oxide synthase inhibiting activity (DLD-1 cell lysate)
T2 construct: Enzyme is prepared, after induction, from the cultured human colorectal carcinoma cell line, DLD-1; endogenous in cells; host or cells: DLD-1 cells (European Collection of Animal Cell Cultures), induced with IL-1, IFN-gamma, IL-6 and TNF-alpha; cell lysate

[3] = target: T3, neuronal nitric oxide synthase (Rattus norvegicus, UniProt P29476); test: Screen A: screen for neuronal nitric oxide synthase inhibiting activity (conversion of 3H-L-arginine to 3H-L-citrulline)
T3 construct: Enzyme was isolated from rat hippocampus or cerebellum; from tissue; host or cells: hippocampus or cerebellum of male Sprague-Dawley rat, 20,000 g supernatant
T3 sequence (P29476 whole entry): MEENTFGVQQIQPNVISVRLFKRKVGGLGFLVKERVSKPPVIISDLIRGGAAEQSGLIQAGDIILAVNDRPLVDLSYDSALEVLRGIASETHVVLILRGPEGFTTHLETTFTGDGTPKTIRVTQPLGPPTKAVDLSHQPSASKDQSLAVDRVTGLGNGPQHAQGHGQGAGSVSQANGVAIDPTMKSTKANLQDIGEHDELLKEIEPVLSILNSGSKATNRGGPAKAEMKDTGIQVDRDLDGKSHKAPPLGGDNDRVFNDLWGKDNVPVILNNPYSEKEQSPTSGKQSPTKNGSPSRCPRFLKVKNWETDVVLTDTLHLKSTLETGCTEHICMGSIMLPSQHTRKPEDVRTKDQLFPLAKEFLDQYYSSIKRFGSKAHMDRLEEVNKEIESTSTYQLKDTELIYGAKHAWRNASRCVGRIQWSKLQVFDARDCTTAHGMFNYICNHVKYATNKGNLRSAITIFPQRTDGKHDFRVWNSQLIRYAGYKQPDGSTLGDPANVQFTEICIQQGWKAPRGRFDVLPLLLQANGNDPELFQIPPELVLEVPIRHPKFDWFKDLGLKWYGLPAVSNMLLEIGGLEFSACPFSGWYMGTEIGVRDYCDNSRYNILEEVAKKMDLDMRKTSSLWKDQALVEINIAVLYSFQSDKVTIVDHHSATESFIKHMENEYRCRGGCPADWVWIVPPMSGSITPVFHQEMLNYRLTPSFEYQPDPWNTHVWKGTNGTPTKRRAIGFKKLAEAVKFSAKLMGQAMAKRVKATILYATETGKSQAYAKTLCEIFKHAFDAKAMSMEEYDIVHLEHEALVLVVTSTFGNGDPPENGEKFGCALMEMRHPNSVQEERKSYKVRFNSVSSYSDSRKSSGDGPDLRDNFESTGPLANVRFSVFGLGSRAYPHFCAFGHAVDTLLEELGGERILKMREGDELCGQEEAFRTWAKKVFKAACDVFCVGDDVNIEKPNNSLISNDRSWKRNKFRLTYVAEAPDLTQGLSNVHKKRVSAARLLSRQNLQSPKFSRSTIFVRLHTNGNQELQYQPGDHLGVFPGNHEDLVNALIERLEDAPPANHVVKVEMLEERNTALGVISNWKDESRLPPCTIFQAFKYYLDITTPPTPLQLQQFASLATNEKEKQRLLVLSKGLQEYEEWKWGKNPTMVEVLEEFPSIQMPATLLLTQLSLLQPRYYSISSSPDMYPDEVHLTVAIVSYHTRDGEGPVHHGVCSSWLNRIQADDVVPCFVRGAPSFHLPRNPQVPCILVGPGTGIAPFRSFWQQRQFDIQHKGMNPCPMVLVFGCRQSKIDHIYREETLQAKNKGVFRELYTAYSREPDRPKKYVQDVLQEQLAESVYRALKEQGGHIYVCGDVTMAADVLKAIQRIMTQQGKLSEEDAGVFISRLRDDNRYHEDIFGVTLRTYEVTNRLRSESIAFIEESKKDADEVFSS

Structure (SMILES): CCSC(=N)Nc1ccc2c(c1)CNCC2 [Example 1, N-(1,2,3,4-tetrahydroisoquinolin-7-yl)carbamimidothioic acid ethyl ester]
IC50 in Screen C relative to that obtained in Screen A (selectivity) ([1]; Screen C (endothelial isoform) IC50 / Screen A (neuronal) IC50): more than 10 times
IC50 in Screen B relative to that obtained in Screen A (selectivity) ([2]; Screen B (macrophage isoform) IC50 / Screen A (neuronal) IC50): more than 10 times
IC50 [3]: < 10 µM

IC50 ([2]; inducible isoform, DLD-1 cell lysate, standard to verify the procedure, read-out: IC50 (50% inhibitory concentration) (Screen B standard)): 10 µM
Structure (SMILES): N=C(N)NN [Aminoguanidine, reference compound]

IC50 ([3]; neuronal isoform, rat hippocampus or cerebellum supernatant, read-out: IC50 (Screen A)): < 10 µM
Structure (SMILES): CCSC(=N)Nc1ccc2c(c1)CC(N(C)Cc1cccc(Cl)c1)C2 (stereo not shown) [Example 2, N-5-(2-(((3-chlorophenyl)methyl)(methyl)amino)indanyl)carbamimidothioic acid, ethyl ester]

inhibition at 1 µM ([1]; at a concentration of 1 μM, typical experiment, read-out: inhibition of nitric oxide synthase (Screen C reference standard)): 70 to 90%
inhibition at 1 µM ([3]; at a concentration of 1 μM, cerebellar supernatant, typical experiment, read-out: inhibition of nitric oxide synthase (Screen A reference standard)): 80%
Structure (SMILES): NC(=NCCC[C@H](N)C(=O)O)N[N+](=O)[O-] [N-nitro-L-arginine, reference compound]
